From US9000162B2, “5,8-difluoro-4-(2-(4-(heteroaryloxy)-phenyl)ethylamino)quinazolines and their use as agrochemicals” (Dow AgroSciences LLC, priority 2008, dated 2015)

What was measured:
Type in all cases: in vivo
[1] = test system: Magnaporthe grisea = Pyricularia oryzae (PYRIOR); assay: whole plant or invertebrate; conditions: foliar, read-out: Activity against fungal diseases PYRIOR
[2] = test system: Puccinia recondita tritici (PUCCRT); assay: Leaf rust of wheat foliar protectant test; conditions: read-out: Activity against fungal diseases PUCCRT; for pest or weed control at 200 ppm: 200 ppm foliar, inoculated one day after treatment; for pest or weed control at 3 ppm: foliar, Tested at 3 ppm (footnote a)
Experimental: (§1) The plants were inoculated with the fungus one day after treatment. ***=80-100% control; **=50-79% control; *=0-49% control. It will be understood by those in the art that the efficacy of the compounds against the foregoing fungi establishes the general utility of the compounds as fungicides. The activity of the compounds as effective fungicides was determined by applying the compounds to plants and observing control of fungal disease. […] All plants were inoculated with spores of the fungus the day after treatment, then incubated in an environment conducive to disease development. Disease severity was evaluated 4 to 25 days later, depending on the speed of disease development. The following experiments were performed in the laboratory to determine the fungicidal efficacy of the compounds of the invention. […] Each pot contained 3-8 seedlings. These plants were sprayed until wet with the formulated test compounds. On the following day, the leaves were inoculated with an aqueous spore suspension of Puccinia recondita tritici and the plants were kept in high humidity overnight to permit spores to germinate and infect the leaf. The plants were then transferred to a greenhouse until disease developed on untreated control plants. Table 1 presents the activity of typical compounds of the present invention when evaluated in these experiments. The effectiveness of the test compounds at controlling disease when sprayed on leaves was determined by assessing the severity of disease on treated plants, then converting the severity to percent control based on the level of disease on untreated, inoculated plants.

[3] = test system: Septoria tritici (SEPTTR); assay: Septoria blotch of wheat foliar protectant test; conditions: Zymoseptoria tritici, read-out: Activity against fungal diseases SEPTTR; for pest or weed control at 200 ppm: 200 ppm foliar, inoculated one day after treatment; for pest or weed control at 25 ppm: foliar, Tested at 25 ppm (footnote b)
Experimental: as §1, with “3-10” for “3-8”, “compound.” for “compounds.”, “Septoria” for “Puccinia recondita”, “(one day in a dark dew chamber followed by three days in a lighted dew chamber)” for “overnight”

[4] = test system: Pseudoperonospora cubensis (PSPECU); assay: Cucumber downy mildew foliar protectant test; conditions: 200 ppm foliar, inoculated one day after treatment, read-out: Activity against fungal diseases PSPECU
Experimental: The plants were inoculated with the fungus one day after treatment. ***=80-100% control; **=50-79% control; *=0-49% control. It will be understood by those in the art that the efficacy of the compounds against the foregoing fungi establishes the general utility of the compounds as fungicides. The activity of the compounds as effective fungicides was determined by applying the compounds to plants and observing control of fungal disease. […] All plants were inoculated with spores of the fungus the day after treatment, then incubated in an environment conducive to disease development. Disease severity was evaluated 4 to 25 days later, depending on the speed of disease development. The following experiments were performed in the laboratory to determine the fungicidal efficacy of the compounds of the invention. Cucumber Downy Mildew (Causal Agent Pseudoperonospora cubensis; Bayer Code […]): Cucumber plants (variety “Bush Champion' or 'Bush Pickle Hybrid') were grown from seed in a soil-less peat-based potting mixture (Metromix) until the first true leaf was 20-80% expanded. Each pot contained 1 seedling. These plants were sprayed until wet with the formulated test compound. On the following day, the leaves were inoculated with an aqueous suspension of downy mildew sporangia and the plants were kept in high humidity for one day to permit sporangia to germinate and infect the leaf. The plants were then incubated in a growth chamber until disease developed on untreated control plants. Table 1 presents the activity of typical compounds of the present invention when evaluated in these experiments. The effectiveness of the test compounds at controlling disease when sprayed on leaves was determined by assessing the severity of disease on treated plants, then converting the severity to percent control based on the level of disease on untreated, inoculated plants.

## COc1ccc2c(c1)CC(Nc1ncnc3c(F)ccc(F)c13)C2 (stereo not drawn) [Compound 105]
[1]
  pest or weed control at 200 ppm: 80 to 100%
[2]
  pest or weed control at 200 ppm: 80 to 100%
[3]
  pest or weed control at 200 ppm: 0 to 49%

## Cc1cc(CCNc2ncnc3c(F)ccc(F)c23)ccc1Oc1cc(C(C)(F)F)ccn1 [Compound 64]
[1]
  pest or weed control at 200 ppm: 80 to 100%
[2]
  pest or weed control at 200 ppm: 80 to 100%
[4]
  pest or weed control at 200 ppm: 80 to 100%
[3]
  pest or weed control at 200 ppm: 80 to 100%

## N#Cc1cc(CCNc2ncnc3c(F)ccc(F)c23)ccc1Oc1cc(C(F)(F)F)ccn1 [Compound 41]
[1]
  pest or weed control at 200 ppm: 80 to 100%
[2]
  pest or weed control at 200 ppm: 80 to 100%
[4]
  pest or weed control at 200 ppm: 80 to 100%
[3]
  pest or weed control at 25 ppm: 50 to 79%

## COc1cc(CCNc2ncnc3c(F)ccc(F)c23)ccc1Oc1cc(C(F)(F)F)cc(C)n1 [Compound 44]
[1]
  pest or weed control at 200 ppm: 0 to 49%
[2]
  pest or weed control at 200 ppm: 80 to 100%
[4]
  pest or weed control at 200 ppm: 80 to 100%
[3]
  pest or weed control at 200 ppm: 80 to 100%

## CC(Cc1ccc(Oc2cc(C(F)(F)F)ccn2)cc1)Nc1ncnc2c(F)ccc(F)c12 (stereo not drawn) [Compound 134]
[2]
  pest or weed control at 3 ppm: 80 to 100%
[3]
  pest or weed control at 25 ppm: 80 to 100%

## COc1cc(CCNc2ncnc3c(F)ccc(F)c23)ccc1Oc1ccnc(Cl)c1 [Compound 108]
[1]
  pest or weed control at 200 ppm: 0 to 49%
[2]
  pest or weed control at 200 ppm: 80 to 100%
[4]
  pest or weed control at 200 ppm: 0 to 49%
[3]
  pest or weed control at 200 ppm: 80 to 100%

## COc1cc(CCNc2ncnc3c(F)ccc(F)c23)ccc1Oc1nc(C(F)(F)F)nc(F)c1F [Compound 101]
[1]
  pest or weed control at 200 ppm: 0 to 49%
[2]
  pest or weed control at 200 ppm: 50 to 79%
[4]
  pest or weed control at 200 ppm: 80 to 100%
[3]
  pest or weed control at 200 ppm: 0 to 49%

## COc1cc(C)c(CCNc2ncnc3c(F)ccc(F)c23)cc1C [Compound 17]
[1]
  pest or weed control at 200 ppm: 50 to 79%
[2]
  pest or weed control at 200 ppm: 80 to 100%
[4]
  pest or weed control at 200 ppm: 80 to 100%
[3]
  pest or weed control at 200 ppm: 0 to 49%

## CCc1cc(CCNc2ncnc3c(F)ccc(F)c23)ccc1Oc1cc(C(F)(F)F)ccn1 [Compound 66]
[1]
  pest or weed control at 200 ppm: 80 to 100%
[2]
  pest or weed control at 200 ppm: 80 to 100%
[4]
  pest or weed control at 200 ppm: 80 to 100%
[3]
  pest or weed control at 200 ppm: 80 to 100%

## Oc1cccc(CCNc2ncnc3c(F)ccc(F)c23)c1 [Compound 35]
[2]
  pest or weed control at 200 ppm: 50 to 79%
[4]
  pest or weed control at 200 ppm: 80 to 100%

## COc1ccc(C(C)CNc2ncnc3c(F)ccc(F)c23)cc1 (stereo not drawn) [Compound 139]
[2]
  pest or weed control at 3 ppm: 0 to 49%
[3]
  pest or weed control at 25 ppm: 0 to 49%

## Fc1ccc(F)c2c(OCCc3ccc(OCC(F)(F)F)cc3)ncnc12 [Compound 121]
[2]
  pest or weed control at 3 ppm: 0 to 49%
[3]
  pest or weed control at 25 ppm: 50 to 79%

## CC(Cc1ccc(Oc2cc(C(F)(F)F)ncn2)cc1)Nc1ncnc2c(F)ccc(F)c12 (stereo not drawn) [Compound 135]
[2]
  pest or weed control at 3 ppm: 80 to 100%
[3]
  pest or weed control at 25 ppm: 80 to 100%

## CC(Cc1ccc(Oc2ccc(C(F)(F)F)cn2)cc1)Nc1ncnc2c(F)ccc(F)c12 (stereo not drawn) [Compound 136]
[2]
  pest or weed control at 3 ppm: 80 to 100%
[3]
  pest or weed control at 25 ppm: 80 to 100%

## CC(Cc1ccc(Oc2cnccc2C(F)(F)F)cc1)Nc1ncnc2c(F)ccc(F)c12 (stereo not drawn) [Compound 138]
[2]
  pest or weed control at 3 ppm: 80 to 100%
[3]
  pest or weed control at 25 ppm: 80 to 100%

## Oc1ccc(CCNc2ncnc3c(F)ccc(F)c23)cc1Br [Compound 38]
[1]
  pest or weed control at 200 ppm: 0 to 49%
[2]
  pest or weed control at 200 ppm: 0 to 49%
[4]
  pest or weed control at 200 ppm: 0 to 49%

## COC(=O)c1cnc(Oc2ccc(CCNc3ncnc4c(F)ccc(F)c34)cc2C)cc1C(F)(F)F [Compound 36]
[2]
  pest or weed control at 200 ppm: 80 to 100%
[4]
  pest or weed control at 200 ppm: 80 to 100%
[3]
  pest or weed control at 25 ppm: 0 to 49%

## CC(CNc1ncnc2c(F)ccc(F)c12)c1ccc(Oc2cc(C(F)(F)F)ncn2)cc1 (stereo not drawn) [Compound 142]
[2]
  pest or weed control at 3 ppm: 80 to 100%
[3]
  pest or weed control at 25 ppm: 80 to 100%

## Fc1cc(F)c2ncnc(NCCc3ccc(Oc4cc(C(F)(F)F)ccn4)c(Cl)c3)c2c1F [Compound 92]
[1]
  pest or weed control at 200 ppm: 80 to 100%
[2]
  pest or weed control at 200 ppm: 50 to 79%
[3]
  pest or weed control at 200 ppm: 50 to 79%

## COc1ccc(C(C)Nc2ncnc3c(F)ccc(F)c23)cc1 (stereo not drawn) [Compound 120]
[2]
  pest or weed control at 200 ppm: 80 to 100%
[3]
  pest or weed control at 200 ppm: 0 to 49%

## Fc1ccc(F)c2c(NCCc3ccc(Oc4cc(C(F)(F)F)ncn4)cc3)ncnc12 [Compound 109]
[1]
  pest or weed control at 200 ppm: 80 to 100%
[2]
  pest or weed control at 200 ppm: 80 to 100%
[3]
  pest or weed control at 200 ppm: 80 to 100%

## CC(CNc1ncnc2c(F)ccc(F)c12)c1ccc(Oc2ncc(C(F)(F)F)cc2F)cc1 (stereo not drawn) [Compound 145]
[2]
  pest or weed control at 3 ppm: 0 to 49%
[3]
  pest or weed control at 25 ppm: 50 to 79%

## Fc1ccc(F)c2c(NCCc3ccc(Oc4cncc(C(F)(F)F)c4)cc3)ncnc12 [Compound 123]
[2]
  pest or weed control at 3 ppm: 80 to 100%
[3]
  pest or weed control at 25 ppm: 80 to 100%

## COc1cc(CCNc2ncnc3c(F)cc(F)c(F)c23)ccc1O [Compound 33]
[2]
  pest or weed control at 3 ppm: 0 to 49%
[3]
  pest or weed control at 25 ppm: 0 to 49%

## Fc1ccc(F)c2c(NCCc3ccc(Oc4cc(Cl)nc(C(F)(F)F)n4)cc3)ncnc12 [Compound 103]
[1]
  pest or weed control at 200 ppm: 80 to 100%
[2]
  pest or weed control at 200 ppm: 80 to 100%
[3]
  pest or weed control at 200 ppm: 0 to 49%

## Fc1ccc(F)c2c(NCCc3ccc(Oc4ccnc(C(F)(F)F)c4)cc3)ncnc12 [Compound 71]
[2]
  pest or weed control at 3 ppm: 80 to 100%
[3]
  pest or weed control at 25 ppm: 80 to 100%

## Cc1ccnc(Oc2ccc(CCNc3ncnc4c(F)ccc(F)c34)cc2)c1 [Compound 128]
[2]
  pest or weed control at 3 ppm: 80 to 100%
[3]
  pest or weed control at 25 ppm: 50 to 79%

## CC(CNc1ncnc2c(F)ccc(F)c12)c1ccc(Oc2ccc(C(F)(F)F)cn2)cc1 (stereo not drawn) [Compound 143]
[2]
  pest or weed control at 3 ppm: 0 to 49%
[3]
  pest or weed control at 25 ppm: 80 to 100%

## Cc1cc(CCNc2ncnc3c(F)ccc(F)c23)ccc1Oc1nc(C(F)(F)F)nc(F)c1F [Compound 102]
[1]
  pest or weed control at 200 ppm: 80 to 100%
[2]
  pest or weed control at 200 ppm: 80 to 100%
[3]
  pest or weed control at 200 ppm: 0 to 49%

## Cc1cc(C(F)(F)F)cc(Oc2cc(C)c(CCNc3ncnc4c(F)ccc(F)c34)cc2C)n1 [Compound 22]
[1]
  pest or weed control at 200 ppm: 50 to 79%
[2]
  pest or weed control at 200 ppm: 80 to 100%
[3]
  pest or weed control at 25 ppm: 80 to 100%

## COc1cc(CCNc2ncnc3c(F)ccc(F)c23)ccc1Oc1cc(Cl)nc(C(F)(F)F)n1 [Compound 104]
[1]
  pest or weed control at 200 ppm: 80 to 100%
[2]
  pest or weed control at 200 ppm: 80 to 100%
[3]
  pest or weed control at 200 ppm: 0 to 49%

## CC(CNc1ncnc2c(F)ccc(F)c12)c1ccc(Oc2cc(C(F)(F)F)ccn2)cc1 (stereo not drawn) [Compound 144]
[2]
  pest or weed control at 3 ppm: 80 to 100%
[3]
  pest or weed control at 25 ppm: 80 to 100%

## CC(CNc1ncnc2c(F)ccc(F)c12)c1ccc(Oc2cnccc2C(F)(F)F)cc1 (stereo not drawn) [Compound 141]
[2]
  pest or weed control at 3 ppm: 80 to 100%
[3]
  pest or weed control at 25 ppm: 80 to 100%

## Fc1ccc(F)c2c(NCCc3ccc(Oc4ncccc4C(F)(F)F)cc3)ncnc12 [Compound 13]
[2]
  pest or weed control at 3 ppm: 80 to 100%
[3]
  pest or weed control at 25 ppm: 80 to 100%

## CC(Cc1ccc(Oc2ncc(C(F)(F)F)cc2F)cc1)Nc1ncnc2c(F)ccc(F)c12 (stereo not drawn) [Compound 137]
[2]
  pest or weed control at 3 ppm: 50 to 79%
[3]
  pest or weed control at 25 ppm: 80 to 100%
